From ChEMBL document CHEMBL3046666, “Design, synthesis, and biological evaluation of benzofuran derivatives as ET receptor antagonists” (Med Chem Res, 2013)
Activity calls are given as the source filed them. No cut-off for these calls is given here. Square brackets hold non-standard residues; d marks the D form. Peptide text beside a SMILES is read from it.

How the values were obtained:
[1] = biological target: T1, Endothelin-1 receptor (Rattus norvegicus) (UniProt P26684); test: Antagonist activity at ETA receptor in Sprague-Dawley Rattus norvegicus (rat) thoracic aortic ring assessed as inhibition of ET1-induced thoracic aortic ring contraction at 10 uM after 30 min relative to control
T1 sequence (whole entry): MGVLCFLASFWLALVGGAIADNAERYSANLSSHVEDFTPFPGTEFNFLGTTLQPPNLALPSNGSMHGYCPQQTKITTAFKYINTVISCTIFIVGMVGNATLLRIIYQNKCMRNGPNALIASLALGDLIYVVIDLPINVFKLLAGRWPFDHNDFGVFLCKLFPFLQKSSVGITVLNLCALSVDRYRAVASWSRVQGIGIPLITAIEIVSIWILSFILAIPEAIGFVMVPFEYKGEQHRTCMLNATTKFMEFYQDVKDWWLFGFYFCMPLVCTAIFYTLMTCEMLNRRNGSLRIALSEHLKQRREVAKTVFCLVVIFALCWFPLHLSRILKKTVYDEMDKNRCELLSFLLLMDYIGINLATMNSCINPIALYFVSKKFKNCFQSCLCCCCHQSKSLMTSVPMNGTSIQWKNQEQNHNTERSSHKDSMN

Rattus norvegicus [2] = species: Rattus norvegicus; test: Selectivity Rattus norvegicus (rat)io of IC50 for ETB receptor in Sprague-Dawley Rattus norvegicus (rat) myocardium to IC50 for ETA receptor in Sprague-Dawley Rattus norvegicus (rat) myocardium; assay type: tissue-based
Endothelin-1 receptor [3] = biological target: T2, Endothelin-1 receptor (Rattus norvegicus, UniProt P26684); test: Displacement of [125I]ET-1 from ETA receptor in Sprague-Dawley Rattus norvegicus (rat) myocardium after 1 hr
T2 sequence (P26684 whole entry): T1 sequence (whole entry)

[4] = biological target: T3, Endothelin receptor type B (Rattus norvegicus, UniProt P21451); test: Displacement of [125I]ET-1 from ETB receptor in Sprague-Dawley Rattus norvegicus (rat) myocardium after 1 hr
T3 sequence (P21451 whole entry): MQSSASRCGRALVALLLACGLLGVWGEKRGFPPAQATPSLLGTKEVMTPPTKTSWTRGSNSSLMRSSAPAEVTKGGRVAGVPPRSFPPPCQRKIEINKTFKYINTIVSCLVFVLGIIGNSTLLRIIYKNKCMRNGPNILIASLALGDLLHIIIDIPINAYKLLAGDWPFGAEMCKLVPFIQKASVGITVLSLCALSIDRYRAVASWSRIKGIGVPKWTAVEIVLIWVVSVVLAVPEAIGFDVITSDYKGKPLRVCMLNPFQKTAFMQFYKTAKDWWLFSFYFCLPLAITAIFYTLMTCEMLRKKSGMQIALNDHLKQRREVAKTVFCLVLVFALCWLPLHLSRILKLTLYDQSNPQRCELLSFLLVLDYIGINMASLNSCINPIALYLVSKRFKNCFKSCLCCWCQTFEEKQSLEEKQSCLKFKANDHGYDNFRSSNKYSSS

Rattus norvegicus [5] = test: Antihypertensive activity in po dosed hypoxic pulmonary arterial Sprague-Dawley Rattus norvegicus (rat) model assessed as decrease in hypoxia-induced right ventricular systolic pressure administered for 28 days measured on day 29 by hemodynamic analyzer relative to untreated control; assay type: functional, organism-based; settings: Heart right ventricle
Rattus norvegicus [6] = test: Antihypertensive activity in po dosed hypoxic pulmonary arterial Sprague-Dawley Rattus norvegicus (rat) model assessed as decrease in hypoxia-induced central vein pressure administered for 28 days measured on day 29 by hemodynamic analyzer relative to untreated control; assay type: functional, organism-based; settings: Artery
Rattus norvegicus [7] = test: Antihypertensive activity in hypoxic pulmonary arterial Sprague-Dawley Rattus norvegicus (rat) model assessed as decrease in hypoxia-induced right ventricular systolic pressure at 10 mg/kg, po administered for 28 days measured on day 29 by hemodynamic analyzer relative to untreated control; assay type: functional, organism-based; parameters: dose 10 mg/kg; settings: Heart right ventricle
Rattus norvegicus [8] = test: Antihypertensive activity in hypoxic pulmonary arterial Sprague-Dawley Rattus norvegicus (rat) model assessed as decrease in hypoxia-induced central vein pressure at 10 mg/kg, po administered for 28 days measured on day 29 by hemodynamic analyzer relative to untreated control; assay type: functional, organism-based; parameters: dose 10 mg/kg; settings: Artery
Endothelin-1 receptor [9] = biological target: T4, Endothelin-1 receptor (Homo sapiens, UniProt P25101); test: Antagonist activity at ETA receptor (unknown origin)
T4 sequence (P25101 whole entry): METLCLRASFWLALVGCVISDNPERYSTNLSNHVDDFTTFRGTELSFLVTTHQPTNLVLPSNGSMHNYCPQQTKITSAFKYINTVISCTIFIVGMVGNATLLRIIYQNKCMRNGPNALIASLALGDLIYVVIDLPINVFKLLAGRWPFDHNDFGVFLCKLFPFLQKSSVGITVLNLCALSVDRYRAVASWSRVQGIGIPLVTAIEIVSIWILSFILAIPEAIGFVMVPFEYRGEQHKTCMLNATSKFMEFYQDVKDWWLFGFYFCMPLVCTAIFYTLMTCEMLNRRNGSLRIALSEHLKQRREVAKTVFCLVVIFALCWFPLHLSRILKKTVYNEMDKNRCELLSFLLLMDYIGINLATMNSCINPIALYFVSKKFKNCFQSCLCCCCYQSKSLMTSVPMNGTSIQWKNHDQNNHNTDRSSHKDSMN

Endothelin-1 receptor [10] = biological target: T4, Endothelin-1 receptor; test: Antagonist activity at Homo sapiens (human) ETA receptor

Row | SMILES | inhibition [1] | also measured
1 | CCCCCOc1cccc2oc(C(=O)O)c(C)c12 | 46.8% | –
2 | CCCCOc1cccc2oc(C(=O)O)c(C)c12 | 56.7% | –
3 | Cc1c(C(=O)O)oc2cccc(OCc3ccc4nsnc4c3)c12 | 82.2% | Ratio IC50 (Rattus norvegicus [2]): 40; IC50 (Endothelin-1 receptor [3]): 23 nM; IC50 [4]: 930 nM
4 | CCOc1cccc2oc(C(=O)O)c(C)c12 | 61% | –
5 | Cc1c(C(=O)O)oc2cccc(OCCN3CCCC3)c12 | 34.1% | Activity (Rattus norvegicus [5]): Dose-dependent effect; Activity (Rattus norvegicus [6]): Dose-dependent effect
6 | COC(=O)C1=C(C)NC(C)=C(C(=O)OC)C1c1ccccc1[N+](=O)[O-] | – | Activity (Rattus norvegicus [7]): Active; Activity (Rattus norvegicus [8]): Active
7 | Cc1c(C(=O)O)oc2cccc(OCc3ccc4nonc4c3)c12 | 70% | Ratio IC50 (Rattus norvegicus [2]): 27; IC50 (Endothelin-1 receptor [3]): 39 nM; IC50 [4]: 1070 nM
8 | Cc1c(C(=O)O)oc2cccc(OCc3ccccc3)c12 | 40.7% | IC50 (Endothelin-1 receptor [9]): 3800 nM
9 | Cc1c(C(=O)O)oc2cccc(OC(CCC(=O)O)c3ccccc3)c12 (stereo not drawn) | 44% | –
10 | Cc1c(C(=O)O)oc2cccc(OCCOc3cccc(Cl)c3)c12 | 21.7% | –
11 | COc1cccc2oc(C(=O)O)c(C)c12 | – | IC50 (Endothelin-1 receptor [9]): 11000 nM
12 | CCCOc1cccc2oc(C(=O)O)c(C)c12 | 69.7% | –
13 | CC(C)C[C@@H]1NC(=O)[C@@H](C(C)C)NC(=O)[C@@H]2CCCN2C(=O)[C@@H](CC(=O)O)NC(=O)[C@@H](Cc2c[nH]c3ccccc23)NC1=O [BQ-123] (cyclo(L[dW][dD]P[dV])) | 68.1% | IC50 (Endothelin-1 receptor [10]): 37 nM; IC50 (Endothelin-1 receptor [3]): 28 nM
14 | Cc1c(C(=O)O)oc2cccc(OC(C(=O)O)c3ccccc3)c12 (stereo not drawn) | 29% | –
15 | Cc1ccc(OCCOc2cccc3oc(C(=O)O)c(C)c23)cc1 | 40.8% | –
16 | Cc1c(C(=O)O)oc2cccc(OC/C=C/c3ccccc3)c12 | 50% | –
